Experiment [1] addresses High affinity nerve growth factor receptor (Homo sapiens, UniProt P04629). Nature of the experiment: Selectivity interaction (KinomeScan (DiscoverX)) EUB0000666a NTRK1. The note with it: at 10 µM.
Experiment [2] has as its target Ribosomal protein S6 kinase alpha-6 (Homo sapiens, UniProt Q9UK32). Put plainly: Selectivity interaction (SelectScreen profiling (Invitrogen)) EUB0000607a RPS6KA6. The note with it: at 2 µM.
The target of experiment [3] is Ephrin type-A receptor 5 (Homo sapiens) (UniProt P54756). The note with it: at 10 µM.
The target in experiment [4] is Serine/threonine-protein kinase MARK2 (Homo sapiens) (UniProt Q7KZI7). Nature of the experiment: Selectivity interaction (ActivX KiNativ screen (kinase selectivity in THP-1 cell lysates)) EUB0000639a MARK2. The following applies: lysate, at 0.01 µM. The format is subcellular.
Chain of Serine/threonine-protein kinase MARK2 (Homo sapiens) (Q7KZI7 whole entry): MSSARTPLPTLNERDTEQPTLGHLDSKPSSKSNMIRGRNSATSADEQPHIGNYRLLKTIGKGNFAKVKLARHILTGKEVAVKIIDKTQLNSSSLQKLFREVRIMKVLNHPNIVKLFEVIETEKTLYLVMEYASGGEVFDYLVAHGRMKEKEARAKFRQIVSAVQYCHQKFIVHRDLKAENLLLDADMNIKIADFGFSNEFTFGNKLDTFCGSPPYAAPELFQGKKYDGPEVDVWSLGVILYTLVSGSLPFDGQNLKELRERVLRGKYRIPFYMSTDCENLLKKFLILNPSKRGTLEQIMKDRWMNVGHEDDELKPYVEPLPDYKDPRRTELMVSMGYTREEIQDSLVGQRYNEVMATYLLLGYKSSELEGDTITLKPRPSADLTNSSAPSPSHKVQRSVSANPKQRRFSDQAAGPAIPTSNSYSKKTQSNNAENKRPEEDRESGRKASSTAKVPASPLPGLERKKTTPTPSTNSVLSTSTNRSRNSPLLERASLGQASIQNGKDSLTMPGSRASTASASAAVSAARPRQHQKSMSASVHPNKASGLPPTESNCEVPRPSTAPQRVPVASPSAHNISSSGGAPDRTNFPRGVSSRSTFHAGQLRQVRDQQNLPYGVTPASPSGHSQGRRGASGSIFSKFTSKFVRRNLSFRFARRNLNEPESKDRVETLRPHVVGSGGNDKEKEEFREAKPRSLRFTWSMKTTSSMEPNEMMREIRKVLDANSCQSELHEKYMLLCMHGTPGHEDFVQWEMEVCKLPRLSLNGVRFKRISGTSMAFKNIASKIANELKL
In experiment [5] the target is Ribosomal protein S6 kinase alpha-3 (Homo sapiens, UniProt P51812). Nature of the experiment: Selectivity interaction (ActivX KiNativ screen (kinase selectivity in THP-1 cell lysates)) EUB0000639a RPS6KA3. The format is subcellular. The note with it: lysate, at 0.01 µM.
Chain of Ribosomal protein S6 kinase alpha-3 (P51812 whole entry): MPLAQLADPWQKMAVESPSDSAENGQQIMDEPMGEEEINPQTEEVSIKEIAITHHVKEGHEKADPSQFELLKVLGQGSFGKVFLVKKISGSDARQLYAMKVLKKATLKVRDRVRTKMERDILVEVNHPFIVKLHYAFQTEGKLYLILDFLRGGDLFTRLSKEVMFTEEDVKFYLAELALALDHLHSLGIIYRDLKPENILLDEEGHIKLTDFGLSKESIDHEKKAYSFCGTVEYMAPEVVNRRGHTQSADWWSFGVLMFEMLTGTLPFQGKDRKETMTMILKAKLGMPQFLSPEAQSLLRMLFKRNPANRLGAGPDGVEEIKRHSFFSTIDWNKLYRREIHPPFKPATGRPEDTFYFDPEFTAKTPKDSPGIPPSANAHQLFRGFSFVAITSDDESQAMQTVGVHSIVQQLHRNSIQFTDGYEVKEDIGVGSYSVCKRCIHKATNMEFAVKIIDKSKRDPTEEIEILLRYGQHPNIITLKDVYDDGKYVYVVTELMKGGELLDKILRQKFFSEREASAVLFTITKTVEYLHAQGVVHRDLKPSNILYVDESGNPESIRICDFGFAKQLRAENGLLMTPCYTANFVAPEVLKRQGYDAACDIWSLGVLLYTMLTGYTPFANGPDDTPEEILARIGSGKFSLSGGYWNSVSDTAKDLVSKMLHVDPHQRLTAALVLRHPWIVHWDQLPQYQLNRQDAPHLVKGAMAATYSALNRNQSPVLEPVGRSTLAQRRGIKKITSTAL
In experiment [6] the target is Cyclin-dependent kinase 18 (Homo sapiens) (UniProt Q07002). Put plainly: Selectivity interaction (ActivX KiNativ screen (kinase selectivity in THP-1 cell lysates)) EUB0000639a CDK18. The class given is subcellular. The note with it: lysate, at 0.01 µM.
Chain of Cyclin-dependent kinase 18 (Homo sapiens) (Q07002 whole entry): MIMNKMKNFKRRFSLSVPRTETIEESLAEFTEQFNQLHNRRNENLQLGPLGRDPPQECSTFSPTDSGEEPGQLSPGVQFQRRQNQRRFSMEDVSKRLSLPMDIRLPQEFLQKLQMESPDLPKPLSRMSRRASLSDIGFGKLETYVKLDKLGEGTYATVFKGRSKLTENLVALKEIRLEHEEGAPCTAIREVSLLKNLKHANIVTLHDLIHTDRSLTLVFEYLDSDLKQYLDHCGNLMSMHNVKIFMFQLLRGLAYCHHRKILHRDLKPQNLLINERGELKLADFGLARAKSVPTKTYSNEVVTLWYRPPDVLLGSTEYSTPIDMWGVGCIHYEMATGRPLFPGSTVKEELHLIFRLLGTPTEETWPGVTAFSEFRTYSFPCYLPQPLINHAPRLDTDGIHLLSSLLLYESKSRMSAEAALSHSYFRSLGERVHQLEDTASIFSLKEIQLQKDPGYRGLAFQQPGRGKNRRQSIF
Experiment [7] has as its target Putative phosphatidylinositol 4-kinase alpha-like protein P2 (Homo sapiens) (UniProt A4QPH2). Nature of the experiment: Selectivity interaction (ActivX KiNativ screen (kinase selectivity in THP-1 cell lysates)) EUB0000639a PI4KAP2. The format is subcellular. The following applies: lysate.
Experiment [8] addresses Casein kinase I isoform gamma-1 (Homo sapiens) (UniProt Q9HCP0). Nature of the experiment: Selectivity interaction (Kinase panel (Invitrogen)) EUB0000639a CSNK1G1. The note with it: at 200 nM.
Experiment [9] addresses Tyrosine-protein kinase receptor UFO (Homo sapiens) (UniProt P30530). Put plainly: Selectivity interaction (KinomeScan (DiscoverX)) EUB0001049a AXL. The following applies: at 1 µM.
Experiment [10] addresses T1, Cytoplasmic tyrosine-protein kinase BMX (Homo sapiens) (UniProt P51813).
T1 sequence (whole entry): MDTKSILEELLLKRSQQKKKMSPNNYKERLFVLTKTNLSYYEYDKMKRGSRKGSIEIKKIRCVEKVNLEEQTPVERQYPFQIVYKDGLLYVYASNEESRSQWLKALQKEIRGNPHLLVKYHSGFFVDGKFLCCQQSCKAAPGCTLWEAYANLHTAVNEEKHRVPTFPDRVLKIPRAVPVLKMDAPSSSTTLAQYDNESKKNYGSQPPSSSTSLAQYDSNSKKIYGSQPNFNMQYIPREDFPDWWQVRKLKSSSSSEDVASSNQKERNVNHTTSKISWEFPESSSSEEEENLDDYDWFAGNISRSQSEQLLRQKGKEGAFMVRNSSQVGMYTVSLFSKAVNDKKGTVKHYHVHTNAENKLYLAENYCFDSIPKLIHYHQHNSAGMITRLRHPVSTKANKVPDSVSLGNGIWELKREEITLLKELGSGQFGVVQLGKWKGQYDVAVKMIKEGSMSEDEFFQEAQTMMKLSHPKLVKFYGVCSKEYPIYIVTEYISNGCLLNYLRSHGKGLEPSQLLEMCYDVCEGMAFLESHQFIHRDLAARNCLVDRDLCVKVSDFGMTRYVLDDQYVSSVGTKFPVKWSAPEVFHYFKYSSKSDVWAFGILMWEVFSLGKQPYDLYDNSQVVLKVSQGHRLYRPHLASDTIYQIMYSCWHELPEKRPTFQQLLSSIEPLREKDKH
Put plainly: Selectivity interaction (KinomeScan (DiscoverX)) EUB0000655a BMX. The following applies: at 10 µM.

A short description of experiment [11]: Selectivity interaction (PWWP, WD40, and Tudor domain panel (DSLS measurements, literature)) EUB0000270b SCML2.
The target of experiment [12] is Calcium/calmodulin-dependent protein kinase type II subunit alpha (Homo sapiens, UniProt Q9UQM7). Nature of the experiment: Selectivity interaction (KinomeScan (DiscoverX)) EUB0001079a CAMK2A. The note with it: at 1 µM.
Experiment [13] has as its target T2, Protein kinase C iota type (Homo sapiens) (UniProt P41743).
T2 sequence (whole entry): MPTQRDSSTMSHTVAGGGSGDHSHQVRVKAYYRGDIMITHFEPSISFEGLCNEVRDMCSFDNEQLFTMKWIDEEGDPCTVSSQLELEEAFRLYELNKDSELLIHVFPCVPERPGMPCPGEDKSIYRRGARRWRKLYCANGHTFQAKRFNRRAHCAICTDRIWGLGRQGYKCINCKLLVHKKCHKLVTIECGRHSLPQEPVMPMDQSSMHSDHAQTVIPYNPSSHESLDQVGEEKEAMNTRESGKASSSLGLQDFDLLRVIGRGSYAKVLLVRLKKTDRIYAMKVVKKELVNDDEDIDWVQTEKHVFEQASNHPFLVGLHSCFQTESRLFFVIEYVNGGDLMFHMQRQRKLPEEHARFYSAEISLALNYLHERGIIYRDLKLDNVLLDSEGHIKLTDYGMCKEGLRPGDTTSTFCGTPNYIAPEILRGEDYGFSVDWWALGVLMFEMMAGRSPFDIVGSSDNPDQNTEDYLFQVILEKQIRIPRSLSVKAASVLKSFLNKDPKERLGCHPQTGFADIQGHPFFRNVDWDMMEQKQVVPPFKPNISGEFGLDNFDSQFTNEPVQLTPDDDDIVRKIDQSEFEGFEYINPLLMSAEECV
Nature of the experiment: Selectivity interaction (Kinase panel (KiNativ target engagement assay in Jurkat cells)) EUB0001635a PRKCI. The format is cell-based. The note with it: Selectivity number of off-targets 0.0, Selectivity number of targets 233.0, Source Knowledge https://www.sciencedirect.com/science/article/pii/S2451945619300674?via%3Dihub, at 1 µM.

This is an account of results in ChEMBL document CHEMBL5465560, “Selectivity Literature for EUbOPEN Chemogenomic Library” (2024).

Chain of Putative phosphatidylinositol 4-kinase alpha-like protein P2 (Homo sapiens) (A4QPH2 whole entry, canonical isoform): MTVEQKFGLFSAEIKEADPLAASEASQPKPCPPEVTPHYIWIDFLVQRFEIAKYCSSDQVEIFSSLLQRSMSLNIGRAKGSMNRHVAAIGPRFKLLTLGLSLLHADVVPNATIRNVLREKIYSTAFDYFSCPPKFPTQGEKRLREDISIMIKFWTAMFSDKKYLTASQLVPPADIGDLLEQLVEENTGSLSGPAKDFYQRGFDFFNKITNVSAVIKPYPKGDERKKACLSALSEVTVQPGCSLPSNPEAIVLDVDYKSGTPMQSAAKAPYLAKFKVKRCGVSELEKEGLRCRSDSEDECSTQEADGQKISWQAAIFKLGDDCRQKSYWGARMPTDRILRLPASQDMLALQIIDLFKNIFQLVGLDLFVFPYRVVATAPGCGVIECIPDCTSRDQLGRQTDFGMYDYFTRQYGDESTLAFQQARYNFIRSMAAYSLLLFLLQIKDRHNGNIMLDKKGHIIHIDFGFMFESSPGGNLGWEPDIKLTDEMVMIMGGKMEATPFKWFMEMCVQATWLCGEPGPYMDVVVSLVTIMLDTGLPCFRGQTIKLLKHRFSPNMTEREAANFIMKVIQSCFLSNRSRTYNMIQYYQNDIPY
Chain of Casein kinase I isoform gamma-1 (Homo sapiens) (Q9HCP0 whole entry, looked up, canonical isoform): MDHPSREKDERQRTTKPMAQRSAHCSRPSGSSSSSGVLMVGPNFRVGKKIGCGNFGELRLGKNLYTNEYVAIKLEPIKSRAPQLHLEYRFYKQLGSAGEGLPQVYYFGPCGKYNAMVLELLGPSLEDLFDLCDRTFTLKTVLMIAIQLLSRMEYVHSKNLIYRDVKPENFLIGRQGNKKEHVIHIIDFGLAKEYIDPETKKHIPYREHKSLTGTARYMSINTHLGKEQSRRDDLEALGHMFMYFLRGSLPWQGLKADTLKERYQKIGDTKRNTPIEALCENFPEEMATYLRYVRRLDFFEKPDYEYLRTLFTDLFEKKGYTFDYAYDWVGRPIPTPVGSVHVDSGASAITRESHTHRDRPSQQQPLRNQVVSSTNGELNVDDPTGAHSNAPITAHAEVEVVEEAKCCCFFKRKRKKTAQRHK
Chain of Tyrosine-protein kinase receptor UFO (Homo sapiens) (P30530 whole entry): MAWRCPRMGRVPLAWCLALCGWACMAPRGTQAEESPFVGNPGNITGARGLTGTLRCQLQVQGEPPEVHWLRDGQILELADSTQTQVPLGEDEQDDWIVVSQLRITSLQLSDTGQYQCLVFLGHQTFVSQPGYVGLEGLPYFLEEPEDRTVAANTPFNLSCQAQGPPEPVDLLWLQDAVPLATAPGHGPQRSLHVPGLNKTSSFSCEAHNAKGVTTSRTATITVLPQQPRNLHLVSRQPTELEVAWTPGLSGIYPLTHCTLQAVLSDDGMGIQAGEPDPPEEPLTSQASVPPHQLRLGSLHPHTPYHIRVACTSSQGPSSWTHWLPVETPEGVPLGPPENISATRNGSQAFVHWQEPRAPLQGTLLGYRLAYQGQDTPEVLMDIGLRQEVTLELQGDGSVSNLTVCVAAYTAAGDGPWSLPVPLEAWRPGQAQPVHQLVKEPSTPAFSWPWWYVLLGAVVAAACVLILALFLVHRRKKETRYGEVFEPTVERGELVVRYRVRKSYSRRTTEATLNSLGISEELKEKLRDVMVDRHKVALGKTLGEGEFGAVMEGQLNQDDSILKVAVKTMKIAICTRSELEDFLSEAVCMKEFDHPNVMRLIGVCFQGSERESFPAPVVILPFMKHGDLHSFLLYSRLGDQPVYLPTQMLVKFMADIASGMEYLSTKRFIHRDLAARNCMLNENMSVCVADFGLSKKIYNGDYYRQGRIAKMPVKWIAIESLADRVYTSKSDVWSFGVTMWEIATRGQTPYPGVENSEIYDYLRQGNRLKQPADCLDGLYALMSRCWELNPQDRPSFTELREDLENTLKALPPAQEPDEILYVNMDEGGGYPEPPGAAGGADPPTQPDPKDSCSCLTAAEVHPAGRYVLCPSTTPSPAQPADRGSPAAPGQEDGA
Chain of Ribosomal protein S6 kinase alpha-6 (Q9UK32 whole entry): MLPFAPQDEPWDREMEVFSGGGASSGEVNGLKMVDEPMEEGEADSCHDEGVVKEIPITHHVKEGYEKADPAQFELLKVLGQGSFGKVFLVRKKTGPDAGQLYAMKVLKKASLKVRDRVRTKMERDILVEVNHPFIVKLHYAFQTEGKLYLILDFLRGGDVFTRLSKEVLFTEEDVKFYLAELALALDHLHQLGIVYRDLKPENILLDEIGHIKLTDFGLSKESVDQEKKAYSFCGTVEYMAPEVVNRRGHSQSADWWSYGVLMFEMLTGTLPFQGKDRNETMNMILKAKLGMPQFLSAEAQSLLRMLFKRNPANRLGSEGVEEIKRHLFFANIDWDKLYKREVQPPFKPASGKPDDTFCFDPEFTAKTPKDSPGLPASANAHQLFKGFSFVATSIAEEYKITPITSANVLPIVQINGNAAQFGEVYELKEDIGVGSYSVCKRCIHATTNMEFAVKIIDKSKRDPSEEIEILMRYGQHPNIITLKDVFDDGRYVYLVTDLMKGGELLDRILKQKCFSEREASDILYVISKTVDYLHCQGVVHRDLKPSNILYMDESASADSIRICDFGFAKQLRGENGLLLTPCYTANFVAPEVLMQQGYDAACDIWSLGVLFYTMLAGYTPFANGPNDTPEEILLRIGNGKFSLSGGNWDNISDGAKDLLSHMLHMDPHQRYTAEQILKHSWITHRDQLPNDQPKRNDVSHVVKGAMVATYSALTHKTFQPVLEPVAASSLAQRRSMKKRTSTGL

In experiment [1], `O=C(NOC[C@H](O)CO)c1ccc(F)c(F)c1Nc1ccc(I)cc1F` showed a % of control of 100%.

For `CNC(=O)Nc1ccc(-c2nc(N3CC4CCC(C3)O4)c3cnn(C4CCC5(CC4)OCCO5)c3n2)cc1`, the % of inhibition in [2] was found to be 12%.

As to `Cc1cc([C@@H](C)Nc2ccccc2C(=O)O)c2nc(N3CCOCC3)cc(=O)n2c1` [AZD-6482], the % of control in [3] was determined as 99%.

For the compound `CC[C@@H]1[C@H](F)C(=O)N[C@@H]1COc1nccc2cc(C(N)=O)c(OC)cc12` [ZIMLOVISERTIB], the % of inhibition is 2.3% in experiment [4]; -9.7% in experiment [5]; 16.3% in experiment [6]; 7.2% in [7] (at 0.01 µM); -7.1% in experiment [7] (at 0.04 µM); -24.4% in experiment [7] (at 0.2 µM). The % of inhibition in experiment [7] (at 1 µM) was -6%; in experiment [7] (at 5 µM) it was 38.5%; in experiment [8], 69.1%.

Take `COc1cc(Nc2nc(C)cc(-c3cnn4nc(OC)ccc34)n2)cc(C(F)(F)F)c1`: in experiment [9], the % of control amounted to 100%.

As to `CN(C)CCOc1ccc(-c2nc(-c3ccncc3)c(-c3ccc4c(c3)CC/C4=N\O)[nH]2)cc1`, the % of control in experiment [10] is 81%.

In the case of `Cc1cc(CN)cc(C)c1-c1ncn(C)c1-c1cncn1C`, in experiment [11], the dTagg is 0.2 K.

Take `Nc1cnc(N2CCc3cc(S(=O)(=O)Nc4c(F)cc(Cl)cc4F)cc(N4CCCC4=O)c32)nc1` [TP-020n]: in experiment [12], the % of control is 92%.

In the case of `C=CC(=O)Nc1ccc(C(=O)Nc2[nH]nc3c2CN(C(=O)N[C@H](CN(C)C)c2ccccc2)C3(C)C)cc1`, the % of engagement in [13] was 9.5%.
